In patent US5550110A, “Endothelin Antagonists II” (Warner-Lambert Company, priority 1994, dated 1996):
Peptide text beside a SMILES is read from it.

Columns and labels:
[1] = target: T1, human ETB receptor (cloned, CHO-K1 cells) (Homo sapiens, UniProt P24530); assay: Human Endothelin Receptor Binding Assay-B (hERBA-B), binding to human cloned receptor; conditions: membranes of transfected CHO-K1 cells
T1 construct: The 1.35 kb HindIII/XbaI restriction fragment of clone 12 of the hETBR was inserted into the eukaryotic expression vector pRcCMV; expressed in transfected cells; host or cells: CHO-K1
T1 sequence (P24530 27-442): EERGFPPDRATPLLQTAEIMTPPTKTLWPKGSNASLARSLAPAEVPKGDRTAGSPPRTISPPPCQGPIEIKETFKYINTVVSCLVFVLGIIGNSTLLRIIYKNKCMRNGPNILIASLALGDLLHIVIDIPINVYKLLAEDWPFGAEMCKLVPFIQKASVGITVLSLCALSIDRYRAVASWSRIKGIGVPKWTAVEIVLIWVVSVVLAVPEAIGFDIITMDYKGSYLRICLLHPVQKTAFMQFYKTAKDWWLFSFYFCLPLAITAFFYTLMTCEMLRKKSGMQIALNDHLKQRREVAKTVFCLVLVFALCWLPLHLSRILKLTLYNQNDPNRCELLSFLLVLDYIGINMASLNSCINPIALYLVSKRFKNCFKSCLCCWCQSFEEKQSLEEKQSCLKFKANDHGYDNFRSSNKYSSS
Description: Human Endothelin Receptor Biding Assay-B (hERBA-B) [^125 I]-ET-1 Binding to Human Cloned Receptor
A human placenta cDNA library was constructed in bacteriophage lambda gt11 and approximately 10^6 plaques were screened with a ^32 P-labelled 1.3 kilobase HindIII/XbaI restriction fragment of rat ETBR cDNA as a probe. Plaque hybridization was carried out for 16 hours at 42° C. in a solution containing 100 μg/mL calf thymus DNA, 1×Denhardt's solution, 5×sodium saline citrate (SSC), 50 mM sodium phosphate, and 0.1% sodium lauryl sulfate (SDS). The membranes were then washed twice for 30 minutes each in 2×SSC and 0.1% SDS at 42° C. A final wash was carried out in 0.5×SSC with 0.1% SDS at 55° C. The positive clones were purified and subcloned into a pUC19 plasmid. DNA sequencing was performed by the dideoxynucleotide chain termination method and human ETBR (h ETBR) was identified by reading both DNA strands.
The 1.35 kb HindIII/XbaI restriction fragment of clone 12 of the hETBR was inserted into the eukaryotic expression vector pRcCMV (pRcCMV-hETBR). CHO-K1 cells were transfected with 20 μg of pRcCMV-hETBR by electroporation at 300 V, 800 μF, low ohms for 1 second. […] Expression levels of human ETBR were determined by the receptor binding assay described below using [^125 I]-ET-3 as the radioligand. […]

[2] = tested on: endothelin receptor, cultured rabbit renal artery vascular smooth muscle cells; assay: Inhibition of ET-1 stimulated arachidonic acid release (AAR-A); assay type: cell-based; conditions: ET-1 0.3 nM
Description: In Vitro Inhibition of ET-1 Stimulated Arachidonic Acid Release in Cultured Rabbit Vascular Smooth Muscle Cells (AAR-A) or CHO Cells Expressing Rat Recombinant ETB Receptor (AAR-B) by Compounds of Formula I
Antagonist activity is measured by the ability of added compounds to reduce endothelin-stimulated arachidonic acid release in cultured vascular smooth muscle cells as arachidonic acid release (AAR). [^3 H] Arachidonic Acid Loading Media (LM) is DME/F12+0.5% fetal calf serum (FCS)×0.25 mCi/mL [^3 H] arachidonic acid (Amersham). Confluent monolayers of cultured rabbit renal artery vascular smooth muscle cells (AAR-A) or CHO cells expressing rat recombinant ETB receptor (AAR-B) were incubated in 0.5 mL of the LM over 18 hours, at 37° C., in 5% CO2. The LM was aspirated and the cells were washed once with the assay buffer (Hank's balanced salt solution [BSS]+10 mM HEPES+fatty acid-free BSA (1 mg/mL)), and incubated for 5 minutes with 1 mL of the prewarmed assay buffer. This solution was aspirated, followed by an additional 1 mL of prewarmed assay buffer, and further incubated for another 5 minutes. A final 5-minute incubation was carried out in a similar manner. The same procedure was repeated with the inclusion of 10 μL of the test compound (1 nM to 1 μM) and 10 μL ET-1 (0.3 nM) and the incubation was extended for 30 minutes. This solution was then collected, […] of scintillation cocktail was added, and the amount of [^3 H] arachidonic acid was determined in a liquid scintillation counter.

ET-1 pressor activity = assay: Conscious rat duration of action study; assay type: in vivo; conditions: 10 mg/kg IV; for inhibition of ET-1 pressor activity: ganglionically blocked conscious rats, n=4
Source text: Conscious Rat Duration of Action Study
Nonfasted rats (350-500 g) were used and anesthetized with Metofane (methoxyflurane) by inhalation. The rats were jugular cannulated (PE50) for IV administration of mecamylamine-HC1 (MEC), ET-1 and Ac-D-Bhg-Leu-Asp-Ile-N-MeIle-Trp (Example 19) Seq ID No: 20, and carotid cannulated (PE50) for arterial blood pressure measurements. Rats were attached to a swivel for freedom of movement, and food and water were available ad lib. Prior to the experiment, the animals were allowed to recover from anesthesia for 60 minutes. […] Ac-D-Bhg-Leu-Asp-Ile-N-MeIle-TrP (Example 19) Seq ID No: 20 was administered at a dose of 10 mg/kg IV.

Structure (SMILES)	IC50 [1]	IC50 [2]	duration of activity in vivo (ET-1 pressor activity)	inhibition of ET-1 pressor activity (ET-1 pressor activity; 5 minutes postdose)	inhibition of ET-1 pressor activity (ET-1 pressor activity; 30 minutes postdose)
CC[C@H](C)[C@H](NC(=O)[C@H](CC(=O)O)NC(=O)[C@H](CC(C)C)NC(=O)[C@H](NC(C)=O)C1c2ccccc2CCc2ccccc21)C(=O)N[C@H](C(=O)N[C@@H](Cc1c[nH]c2ccccc12)C(=O)O)[C@@H](C)CC [Example 1, Ac-D-Bhg-Leu-Asp-Ile-Ile-Trp] (HELM PEPTIDE1{[ac].[O=C([C@H](N[*:1])C1c2ccccc2CCc2ccccc21)[*:2]].L.D.I.I.W}$$$$V2.0)	210 nM				
CC[C@H](C)[C@H](NC(=O)[C@H](CC(=O)O)NC(=O)[C@H](CC(C)C)NC(=O)[C@H](NC(C)=O)C1c2ccccc2CCc2ccccc21)C(=O)N(C)[C@H](C(=O)N[C@@H](Cc1c[nH]c2ccccc12)C(=O)O)[C@@H](C)CC [Example 19, Ac-D-Bhg-Leu-Asp-Ile-N-MeIle-Trp] (HELM PEPTIDE1{[ac].[O=C([C@H](N[*:1])C1c2ccccc2CCc2ccccc21)[*:2]].L.D.I.[meI].W}$$$$V2.0)	25 nM	4.3 nM	prolonged activity	81%	58%
